Results from US7534763B2 (Bristol-Myers Squibb Company, priority 2004, dated 2009).
Like-named read-outs stand apart in the source and are kept apart here. Where a SMILES comes first, the peptide text is derived from it. [ ]: non-standard residue; d: D form. Ala(6-(2-MePh)pyridin-3-yl) = Cc1ccccc1-c1ccc(C[C@H](N)C(=O)O)cn1; Bip(2'-Et-4'-OMe) = CCc1cc(OC)ccc1-c1ccc(C[C@H](N)C(=O)O)cc1; αMePhe(2-F) = C[C@](N)(Cc1ccccc1F)C(=O)O; Aib = CC(C)(N)C(=O)O

Tests used:
[1] = Solubility of protamine/Compound of SEQ ID NO:9 adduct and in protamine solution; format: physicochemical; conditions: MeOH
Source text: Thus, the administration of the protamine/Compound of SEQ ID NO:9 adduct may need a suitable suspending agent; or it maybe injected as dry powder.
Therefore, suspension of the compound of SEQ ID NO:9 in the presence of protamine could still provide extended release effect without using pre-formed protamine/SEQ ID NO:9 adduct.

[2] = Exposure during ipGTT in ob/ob mice; format: in vivo; conditions: sc
Protocol: (§1) Peptides were dissolved in an appropriate vehicle at a concentration in nmol/ml equivalent to the dose that was to be administered in nmol/kg so that each mouse would receive the same volume/weight of dosing solution. Male C57BL/6J-ob/ob mice (10 weeks old) were randomized into groups of 6 mice per group based on fed plasma glucose and body weight. After an overnight fast, mice were weighed and placed in the experimental lab. After 30 min in the environment, the mice were bled via tail tip at −30 min and immediately injected subcutaneously (sc) with vehicle or the peptide dissolved in vehicle (0.1 ml solution/100 g body weight). At time 0 the mice were bled and then injected intraperitoneally with 50% glucose (2 g/kg) to initiate the intraperitoneal glucose tolerance test (ipGTT). The mice were bled 30, 60, 120 and 180 min after the glucose injection. Blood samples were drawn into potassium EDTA, placed on ice during the study and subsequently centrifuged for 10 min at 3000 rpm at 4° C. Plasma samples were diluted 11-fold for glucose analysis in the Cobas System. Another 5 μl plasma sample was diluted 5-fold with 20 μl of Sample Diluent (Insulin ELISA assay kit, Crystal Chem Inc.) and stored at −20° C. for subsequent analysis using the Ultra Sensitive Mouse Insulin ELISA kit (Crystal Chem Inc.).

[3] = test system: ob/ob mice; experiment: intraperitoneal glucose tolerance test (ipGTT) after sc injection in ob/ob mice (plasma glucose, insulin); format: in vivo; conditions: for Potency in ob/ob mice, ED50: sc injection, ipGTT, plasma glucose AUC
Protocol: as §1

[4] = Dog pharmacokinetic study (iv and sc, solution vehicles); format: in vivo
Protocol: The pharmacokinetic parameters of the compound of SEQ ID NO:9 were determined in male beagle dogs (n=4, 14±1 kg). Following an overnight fast, each animal received the compound of SEQ ID NO:9 either as an intravenous bolus via femoral vein (67 μg/kg) or by subcutaneous injection given at near the shoulder blades (67 μg/kg). Each animal received both intravenous and subcutaneous doses with a one-week washout between doses following a crossover design. […] Serial blood samples were collected in EDTA-containing microcentrifuge tubes at predose, 0.083, 0.25, 0.5, 0.75, 1, 2, 4, 6, 8, 24, and 30 hours post-dose after intravenous administration; at predose, 0.25, 0.5, 0.75, 1, 2, 4, 6, 8, 24, and 30 hours post-dose after subcutaneous administration. Approximately 0.3 mL of blood was collected at each time point. Blood samples were immediately centrifuged at 4° C. The obtained plasma was frozen with dry ice and stored at −20° C. Plasma drug levels were determined using the LC-MS/MS assay described above.
Plasma samples from in vivo dog study were prepared for analysis by precipitating plasma proteins with two volumes of acetonitrile containing an internal standard. The samples were vortex mixed and removed the precipitated proteins by centrifugation. The resulting supernatants were transferred to a 96-well plate and 10 μL were injected for analysis. Samples were prepared with the Packard Multiprobe II and Quadra 96 Liquid Handling System.
The HPLC system consisted of two Shimadzu LC10AD pumps (Columbia, Md.), a CTC PAL autosampler (Leap Technologies, Switzerland). The column used was a YMC Hydrosphere C18 (2.0×50 mm, 3 μm) (YMC, Inc., Milford, Ma.). The column temperature was maintained at 50° C. and the flow rate was 0.3 mL/minute. The mobile phase A consisted of 10 mM ammonium formate and 0.1% formic acid in water and mobile phase B consisted of 0.1% formic acid in acetonitrile. The initial mobile phase composition was 5% B, and remained at 5% B for one minute to equilibrate the column. The composition was ramped to 95% B over two minutes and held there for one additional minute. The mobile phase was then returned to initial conditions in one minute. Total analysis time was five minutes. A switching valve was used. The eluents between 0-1 minute were diverted to the waste.
The HPLC was interfaced to a Sciex API 4000 mass spectrometer, (Applied Biosystems, Foster City, Calif.) and was equipped with a TurboIonspray ionization source. Ultra high purity nitrogen was used as the nebulizing and turbo gas. The temperature of turbo gas was set at 300° C. and the interface heater was set at 60° C. Data acquisition utilized selected reaction monitoring (SRM). Ions representing the (M+2H)^2+ species for the compound of SEQ ID NO:9, and (M+2H)^2+ for BMS-501143 (IS) were selected in Q1 and were collisionally dissociated with high purity nitrogen at a pressure of 3.5×10^−3torr to form specific product ions which were subsequently monitored by Q3.
The standard curve concentrations, ranging from 1 to 1000 nM and from 4 to 5000 nM, were used for the in vivo samples obtained from low and high doses, respectively. The curves were fitted with a quadratic regression weighted by reciprocal […]. Standards were analyzed in duplicate. Quality control (QC) samples, prepared in blank matrix at the same concentrations as the standard were also analyzed in each analytical set. For the compound of SEQ ID NO:9, the calculated concentrations of more than 80% of the QCs were within 20% of nominal concentration, indicating acceptable assay performance.
The compound of SEQ ID NO:9 plasma concentration vs. time data were analyzed by noncompartmental methods using the […]™ software program. The Cmax and Tmax values were recorded directly from experimental observations. The AUC0-n and AUCtot values were calculated using a combination of linear and log trapezoidal summations. […]

[5] = Solubility of compound of SEQ ID NO:9 in the presence of Zn(II) / Zn adduct; format: physicochemical; conditions: pH 6.8, 50 mM phosphate buffer
Protocol: Once the Zn/Compound of SEQ ID NO:9 adduct was formed, formulation development studies were conducted in order to evaluate the solubility of the compound of SEQ ID NO:9 in the presence of Zn(II). An excess amount of the compound of SEQ ID NO:9 was suspended in pH 6.8, 50 mM phosphate buffer. The suspension was then placed on an orbital shaker (Model, 100 RPM) at ambient temperature for 12 hours. The suspension was then centrifuged (Model, speed) and the saturated the clear supernatant of the compound of SEQ ID NO:9 was collected into 10 ml centrifuge tubes. A predetermined amount of zinc acetate solution (50 mM, pH 6.8 phosphate buffer) was added into the saturated solution and then precipitated. The concentration of the compound of SEQ ID NO:9 in solution was obtained by centrifuging the suspension and analyzing the clear supernatants by HPLC.
To confirm that the Zn/Compound of SEQ ID NO:9 binding is reversible, the Zn/Compound of SEQ ID NO:9 adduct was suspended in pH 6.8, 50 mM phosphate buffer. A strong chelating agent for Zn(II), EDTA, was added into the suspension in excess amount. The Zn/Compound of SEQ ID NO:9 suspension with and without EDTA was centrifuged and the supernatants were injected into HPLC.

[6] = male, beagle, plasma, sc, 67 ug/kg, dog, subcutaneous 67 μg/kg, propylene glycol:phosphate buffer (50:50)

- solubility [1]: > 50000 µg/mL
- Exposure/dose during ipGTT in ob/ob mice [2]: 18 nM * h/nmol/kg
- Exposure in dogs (sc@67 μg/kg) ([4]; Table I, vehicle 0.2 M Tris buffer (pH 8.0)): 0.452 µM·h
- Vss relative to extracellular fluid ([4]; dog, iv, extracellular fluid 0.14 L/kg): 71 % of extracellular fluid
- systemic clearance as % of liver blood flow ([4]; dog, iv, liver blood flow 31 mL/min/kg): 3.2 % of liver blood flow
- Vss relative to vascular fluid ([4]; dog, iv, vascular fluid 0.05 L/kg): 2 times of vascular fluid
- clearance ([4]; male, beagle, blood, 67 ug/kg, dog, intravenous 67 μg/kg, propylene glycol:phosphate buffer (50:50), read-out: CLB (systemic blood clearance)): 0.9 ± 0.2 mL/min/kg
- MRT ([4]; male, beagle, plasma, 67 ug/kg, dog, intravenous 67 μg/kg, propylene glycol:phosphate buffer (50:50)): 3 ± 1 h
- clearance ([4]; male, beagle, plasma, 67 ug/kg, dog, intravenous 67 μg/kg, propylene glycol:phosphate buffer (50:50), read-out: CLp): 0.6 ± 0.1 mL/min/kg
- Vd ([4]; male, beagle, plasma, 67 ug/kg, dog, intravenous 67 μg/kg, propylene glycol:phosphate buffer (50:50), read-out: VSS): 0.1 ± 0.03 L/kg
- Cmax [4, 6]: 90 ± 29 nM
- Tmax [4, 6]: 5 ± 1 h
- solubility thermodynamic ([5]; aqueous buffer, 25° C., excess EDTA): 18 µg/mL
SMILES: CCc1cc(OC)ccc1-c1ccc(C[C@H](NC(=O)[C@H](CC(=O)O)NC(=O)[C@H](CO)NC(=O)[C@@H](NC(=O)[C@](C)(Cc2ccccc2F)NC(=O)[C@@H](NC(=O)CNC(=O)[C@H](CCC(=O)O)NC(=O)C(C)(C)NC(=O)[C@@H](N)Cc2c[nH]cn2)[C@@H](C)O)[C@@H](C)O)C(=O)N[C@@H](Cc2ccc(-c3ccccc3C)nc2)C(N)=O)cc1 [SEQ ID NO: 9] (H-H[Aib]EGT[αMePhe(2-F)]TSD[Bip(2'-Et-4'-OMe)][Ala(6-(2-MePh)pyridin-3-yl)]-NH2)
- % AUC Reduction in Plasma Glucose in an IP Glucose Tolerance Test after SC Injection of Compound ([3]; ob/ob mice, 10 nmol/kg, vs vehicle group): −68% (p < 0.0001)
- effect on postprandial plasma glucose (in words) ([3]; ob/ob mice, sc, ipGTT 0-180 or 210 min): statistically significant decrease
- Potency in ob/ob mice, ED50 [3]: 5 nmol/kg
- Potency in ob/ob mice, ED50 ([3]; listed as 9): ED50 = 5 nmoles/kg
- solubility in the presence of Zn(II) / of the Zn adduct (in words) [5]: continued to decrease until below the detection limit of HPLC
